Source: doi:10.1101/2023.11.24.568596v1 (biorxiv, 2023)

What was measured:
Conditions in all cases: binder
PAK1 = PAK1 (Homo sapiens, UniProt Q13153)
MST2 = biological target: T1, MST2 (Homo sapiens, UniProt Q13188)
T1 sequence (Q13188 1-491): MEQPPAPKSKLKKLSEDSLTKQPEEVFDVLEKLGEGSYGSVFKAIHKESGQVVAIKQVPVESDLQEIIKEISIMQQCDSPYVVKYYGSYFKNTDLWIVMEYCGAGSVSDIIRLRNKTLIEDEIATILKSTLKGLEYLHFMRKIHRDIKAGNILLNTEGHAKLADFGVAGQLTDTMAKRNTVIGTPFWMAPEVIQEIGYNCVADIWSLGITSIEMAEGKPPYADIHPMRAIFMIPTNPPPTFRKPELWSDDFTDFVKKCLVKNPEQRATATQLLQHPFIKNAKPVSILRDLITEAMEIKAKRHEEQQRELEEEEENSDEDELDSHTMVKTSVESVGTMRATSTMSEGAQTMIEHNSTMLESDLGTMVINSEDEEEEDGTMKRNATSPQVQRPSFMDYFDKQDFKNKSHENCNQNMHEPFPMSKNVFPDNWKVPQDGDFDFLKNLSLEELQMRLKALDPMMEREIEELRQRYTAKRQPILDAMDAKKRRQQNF

MST3 = MST3 (Homo sapiens, UniProt Q9Y6E0)
MST3, sequence (Q9Y6E0 whole entry): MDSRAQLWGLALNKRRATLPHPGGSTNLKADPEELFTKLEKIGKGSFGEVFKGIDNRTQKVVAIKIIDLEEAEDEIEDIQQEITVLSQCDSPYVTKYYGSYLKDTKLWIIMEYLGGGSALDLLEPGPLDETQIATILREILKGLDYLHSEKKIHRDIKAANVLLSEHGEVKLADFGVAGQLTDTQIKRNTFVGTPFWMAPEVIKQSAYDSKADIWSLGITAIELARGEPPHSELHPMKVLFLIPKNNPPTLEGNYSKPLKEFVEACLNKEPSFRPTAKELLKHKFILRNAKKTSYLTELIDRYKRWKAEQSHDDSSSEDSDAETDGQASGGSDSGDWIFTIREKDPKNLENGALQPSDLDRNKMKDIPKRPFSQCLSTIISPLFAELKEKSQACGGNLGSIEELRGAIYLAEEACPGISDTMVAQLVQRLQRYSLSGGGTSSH

MST4 = MST4 (Homo sapiens, UniProt Q9P289)
MST4, sequence (Q9P289 whole entry): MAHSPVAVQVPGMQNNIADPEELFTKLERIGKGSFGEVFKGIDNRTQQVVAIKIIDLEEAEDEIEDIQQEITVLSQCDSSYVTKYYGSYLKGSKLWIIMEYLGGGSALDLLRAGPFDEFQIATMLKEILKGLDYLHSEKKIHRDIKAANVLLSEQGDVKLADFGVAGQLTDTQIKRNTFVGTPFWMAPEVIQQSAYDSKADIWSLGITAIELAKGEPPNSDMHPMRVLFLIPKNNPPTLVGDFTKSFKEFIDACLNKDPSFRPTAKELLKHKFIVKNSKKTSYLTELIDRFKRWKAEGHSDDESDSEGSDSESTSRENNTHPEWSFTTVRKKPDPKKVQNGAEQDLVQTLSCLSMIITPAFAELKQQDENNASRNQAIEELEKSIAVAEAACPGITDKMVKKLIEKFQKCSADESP

MST1 = biological target: T2, MST1 (Homo sapiens, UniProt Q13043)
T2 sequence (Q13043 1-487): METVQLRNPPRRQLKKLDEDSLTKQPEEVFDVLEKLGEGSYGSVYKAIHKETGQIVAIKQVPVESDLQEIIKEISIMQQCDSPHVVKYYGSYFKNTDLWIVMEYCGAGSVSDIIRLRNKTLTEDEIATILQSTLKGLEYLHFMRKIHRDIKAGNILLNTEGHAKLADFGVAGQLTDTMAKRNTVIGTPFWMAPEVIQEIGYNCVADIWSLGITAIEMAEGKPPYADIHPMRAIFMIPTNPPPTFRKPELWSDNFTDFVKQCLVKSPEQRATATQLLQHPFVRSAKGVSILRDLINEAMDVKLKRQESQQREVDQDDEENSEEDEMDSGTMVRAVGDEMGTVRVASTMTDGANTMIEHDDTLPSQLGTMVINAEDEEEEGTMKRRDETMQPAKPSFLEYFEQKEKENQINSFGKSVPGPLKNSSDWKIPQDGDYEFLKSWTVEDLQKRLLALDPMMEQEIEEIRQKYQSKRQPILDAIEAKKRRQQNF

PAK1, sequence (Q13153 whole entry): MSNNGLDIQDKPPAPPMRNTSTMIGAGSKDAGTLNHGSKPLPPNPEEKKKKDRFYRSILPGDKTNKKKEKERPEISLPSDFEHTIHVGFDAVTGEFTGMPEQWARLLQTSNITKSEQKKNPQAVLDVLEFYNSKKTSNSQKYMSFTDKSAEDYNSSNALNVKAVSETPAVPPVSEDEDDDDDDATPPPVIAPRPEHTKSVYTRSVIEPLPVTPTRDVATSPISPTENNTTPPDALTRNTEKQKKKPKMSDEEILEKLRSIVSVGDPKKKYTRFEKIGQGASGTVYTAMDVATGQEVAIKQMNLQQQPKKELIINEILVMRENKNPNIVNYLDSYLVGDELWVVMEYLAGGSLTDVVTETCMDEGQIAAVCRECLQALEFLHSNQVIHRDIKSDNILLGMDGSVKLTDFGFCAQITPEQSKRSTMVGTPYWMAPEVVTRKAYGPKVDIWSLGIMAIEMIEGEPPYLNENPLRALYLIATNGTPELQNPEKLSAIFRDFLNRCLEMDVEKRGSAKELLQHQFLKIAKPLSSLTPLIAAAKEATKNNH

Compound	dTm PAK1 (PAK1) [°C]	dTm MST2 (MST2) [°C]	dTm MST3 (MST3) [°C]	dTm MST4 (MST4) [°C]	dTm MST1 (MST1) [°C]
CNc1ncc2cc(-c3ccc(-c4cccc(C)n4)cc3Cl)c(=O)n(C)c2n1 [compound 10, 6-(2-Chloro-4-(6-methylpyridin-2-yl)phenyl)-8-methyl-2-(methylamino)pyrido[2,3-d]pyrimidin-7(8H)-one]	3.2	1.3	3.7	1.6	1.6
CNc1ncc2cc(-c3ccc(-c4cccc(C)n4)cc3Cl)c(O)nc2n1 [compound 9, 6-(2-Chloro-4-(6-methylpyridin-2-yl)phenyl)-2-(methylamino)pyrido[2,3-d]pyrimidin-7-ol]		0.3	0.6		
CNc1ncc2cc(-c3ccc(-c4cccc(C)n4)cc3Cl)c(=O)n(CCO)c2n1 [compound 14, 6-(2-Chloro-4-(6-methylpyridin-2-yl)phenyl)-8-(2-hydroxyethyl)-2-(methylamino)-pyrido[2,3-d]pyrimidin-7(8H)-one]	5.0	9.0	7.8	5.8	4.0
CNc1ncc2cc(-c3ccc(-c4cccc(C)n4)cc3Cl)c(=O)n(CCCCCO)c2n1 [compound 17, 6-(2-Chloro-4-(6-methylpyridin-2-yl)phenyl)-8-(5-hydroxypentyl)-2-(methylamino)-pyrido[2,3-d]pyrimidin-7(8H)-one]	6.0	6.1	6.6	5.5	2.4
CNc1ncc2cc(-c3ccc(-c4cccc(C)n4)cc3Cl)c(=O)n(CCCCOC)c2n1 [compound 13, 6-(2-Chloro-4-(6-methylpyridin-2-yl)phenyl)-8-(4-methoxybutyl)-2-(methylamino)-pyrido[2,3-d]pyrimidin-7(8H)-one]	4.8	8.6	6.2	3.6	3.3
CNc1ncc2cc(-c3ccc(-c4cccc(C)n4)cc3Cl)c(=O)n(CCOC)c2n1 [compound 11, 6-(2-Chloro-4-(6-methylpyridin-2-yl)phenyl)-8-(2-methoxyethyl)-2-(methylamino)-pyrido[2,3-d]pyrimidin-7(8H)-one]	4.1	5.0	6.7	4.4	3.9

Results, then the compound that gave them:

dTm PAK1 (PAK1) [°C]	dTm MST2 (MST2) [°C]	dTm MST3 (MST3) [°C]	dTm MST4 (MST4) [°C]	dTm MST1 (MST1) [°C]	Compound
5.0	7.1	5.7	5.0	3.8	CNc1ncc2cc(-c3ccc(-c4cccc(C)n4)cc3Cl)c(=O)n(CCCCO)c2n1 [compound 16, 6-(2-Chloro-4-(6-methylpyridin-2-yl)phenyl)-8-(4-hydroxybutyl)-2-(methylamino)-pyrido[2,3-d]pyrimidin-7(8H)-one]
1.3	1.6	5.5	3.3	1.6	CNc1ncc2cc(-c3ccc(-c4cccc(C)n4)cc3Cl)c(=O)n(CCN)c2n1 [compound 18, 8-(2-Aminoethyl)-6-(2-chloro-4-(6-methylpyridin-2-yl)phenyl)-2-(methylamino)pyrido[2,3-d]pyrimidin-7(8H)-one]
4.5	6.3	6.2	5.0	3.4	CNc1ncc2cc(-c3ccc(-c4cccc(C)n4)cc3Cl)c(=O)n(CCCO)c2n1 [compound 15, 6-(2-Chloro-4-(6-methylpyridin-2-yl)phenyl)-8-(3-hydroxypropyl)-2-(methylamino)-pyrido[2,3-d]pyrimidin-7(8H)-one]
4.0	4.4	7.9	7.2	2.8	CNc1ncc2cc(-c3ccc(-c4cccc(C)n4)cc3Cl)c(=O)n(CCCN)c2n1 [compound 19, 8-(3-Aminopropyl)-6-(2-chloro-4-(6-methylpyridin-2-yl)phenyl)-2-(methylamino)-pyrido[2,3-d]pyrimidin-7(8H)-one]
5.1	6.2	5.1	4.1	3.6	CNc1ncc2cc(-c3ccc(-c4cccc(C)n4)cc3Cl)c(=O)n(CCCOC)c2n1 [compound 12, 6-(2-Chloro-4-(6-methylpyridin-2-yl)phenyl)-8-(3-methoxypropyl)-2-(methylamino)-pyrido[2,3-d]pyrimidin-7(8H)-one]
6.3	10.7	9.2	7.1	5.2	CNc1ncc2cc(-c3ccc(-c4cccc(C)n4)cc3Cl)c(=O)n(CCCCCN)c2n1 [compound 21, 8-(5-Aminopentyl)-6-(2-chloro-4-(6-methylpyridin-2-yl)phenyl)-2-(methylamino)-pyrido[2,3-d]pyrimidin-7(8H)-one]
